System: Quadruplex DNA
Test: Binding affinity to c-myc G-quadruplex DNA (unknown origin) assessed as increase in melting temperature at 50 uM by CD-spectrometric analysis
Format: nucleic-acid assay

ΔTm: 2.1 °C
Structure (SMILES): Cc1ccc(NC(=O)c2c(C)oc3ccc(O)c(CN4CCCCCC4)c23)cc1
